Columns and labels:
[1] = molecular target: T1, NBD1 (Homo sapiens, UniProt P13569); experiment: Aggregation analysis using differential static light scattering (DSLS), thermal stability of NBD1 (ΔTagg); format: binding; settings: ΔTagg versus DMSO control, NBD1 0.2 mg/ml
T1 construct: Purified recombinant NBD1 was produced using previously described methods; made in house
Outline: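 NBD1 0.2 mg/ml, S200 buffer (50 mM Tris-HCl, 150 mM NaCl, 5 mM MgCl2, 2 mM ATP, 2 mM DTT, pH7.6) + 1% glycerol; cpd in DMSO; oil overlay. Ramp 25→70° C. at 1° C./min, DSLS images every 0.5° C. ΔTagg = Tagg (inflection) − mean DMSO Tagg.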

[2] = molecular target: T2, CFTR (Homo sapiens, UniProt P13569, DEL508-508); experiment: TECC24 AUC fold over DMSO @10 μM, CFTR-mediated transepithelial chloride transport in CF-HBE cells; format: cell-based; settings: test agent AUC divided by DMSO vehicle AUC, primary CF-HBE cells, ΔF508 homozygous donor, 48 hours incubation
T2 construct: Primary human bronchial epithelial cells from a ΔF508 homozygous CF donor; host or cells: primary human bronchial epithelial cells (CF-HBE), ΔF508 homozygous donor
Outline: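 Primary ΔF508-homozygous CF bronchial epithelial cells on inserts were incubated 48 h at 36.5 °C with compound in IL-13-containing medium. VT and TEER were then recorded in current-clamp mode (pH 7.4 HEPES bath) with benzamil 10 μM, forskolin 10 μM, then CFTR inhibitor-172 20 μM. The IEQ AUC between forskolin and inhibitor was divided by vehicle AUC.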

T1 sequence (P13569 423-646 limits assumed): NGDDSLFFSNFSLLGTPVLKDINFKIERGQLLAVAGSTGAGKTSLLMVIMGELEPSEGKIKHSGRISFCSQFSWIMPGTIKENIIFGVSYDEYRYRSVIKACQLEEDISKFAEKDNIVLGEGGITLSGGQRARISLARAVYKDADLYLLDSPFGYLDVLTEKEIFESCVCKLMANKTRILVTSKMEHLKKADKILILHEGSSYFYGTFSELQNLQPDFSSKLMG
T2 sequence (P13569 with tags, fused parts or gaps DEL508-508): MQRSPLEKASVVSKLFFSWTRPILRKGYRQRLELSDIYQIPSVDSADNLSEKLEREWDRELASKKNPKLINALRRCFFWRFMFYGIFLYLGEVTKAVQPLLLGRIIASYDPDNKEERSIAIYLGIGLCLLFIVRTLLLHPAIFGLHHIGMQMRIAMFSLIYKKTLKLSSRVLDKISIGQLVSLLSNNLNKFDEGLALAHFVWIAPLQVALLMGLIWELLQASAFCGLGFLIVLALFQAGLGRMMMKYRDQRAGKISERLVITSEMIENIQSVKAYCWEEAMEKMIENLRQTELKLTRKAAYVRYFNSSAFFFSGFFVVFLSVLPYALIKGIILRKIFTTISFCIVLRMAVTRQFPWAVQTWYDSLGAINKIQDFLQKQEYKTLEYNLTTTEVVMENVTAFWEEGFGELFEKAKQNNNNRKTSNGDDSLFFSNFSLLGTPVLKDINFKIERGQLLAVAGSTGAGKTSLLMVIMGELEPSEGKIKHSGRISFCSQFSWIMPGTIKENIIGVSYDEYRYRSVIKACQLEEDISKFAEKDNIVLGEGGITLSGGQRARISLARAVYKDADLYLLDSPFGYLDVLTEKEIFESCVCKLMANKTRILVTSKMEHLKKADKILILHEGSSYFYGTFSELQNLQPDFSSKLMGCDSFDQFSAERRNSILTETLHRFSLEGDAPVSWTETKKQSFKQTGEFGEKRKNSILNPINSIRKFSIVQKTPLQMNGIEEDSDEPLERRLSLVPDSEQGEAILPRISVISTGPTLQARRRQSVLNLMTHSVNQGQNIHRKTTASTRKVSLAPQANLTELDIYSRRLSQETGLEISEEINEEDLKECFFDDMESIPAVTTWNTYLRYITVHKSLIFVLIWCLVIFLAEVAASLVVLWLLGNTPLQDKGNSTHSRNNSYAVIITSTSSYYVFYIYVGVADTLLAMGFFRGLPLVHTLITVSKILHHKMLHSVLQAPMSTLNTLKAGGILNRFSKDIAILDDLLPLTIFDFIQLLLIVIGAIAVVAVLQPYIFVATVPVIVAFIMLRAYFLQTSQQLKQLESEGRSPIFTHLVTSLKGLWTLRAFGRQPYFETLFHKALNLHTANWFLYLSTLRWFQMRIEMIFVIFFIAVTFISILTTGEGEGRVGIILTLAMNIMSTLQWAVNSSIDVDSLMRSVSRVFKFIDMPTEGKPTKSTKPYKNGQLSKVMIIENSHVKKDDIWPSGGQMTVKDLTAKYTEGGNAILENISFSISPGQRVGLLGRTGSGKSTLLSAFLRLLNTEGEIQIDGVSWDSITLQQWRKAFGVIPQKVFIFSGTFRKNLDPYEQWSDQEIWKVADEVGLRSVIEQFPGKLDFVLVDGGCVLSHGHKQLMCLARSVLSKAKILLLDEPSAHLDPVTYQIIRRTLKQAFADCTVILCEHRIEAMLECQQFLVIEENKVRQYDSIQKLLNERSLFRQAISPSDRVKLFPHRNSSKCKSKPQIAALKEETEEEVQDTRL

| SMILES | DSLS 3D (100 μM ΔT) [1] | TECC (AUC, 10 μM) [2] |
| --- | --- | --- |
| CC(Cc1cccc(C2(C)CCCC(C)(C)CS(=O)(=O)CCc3c(c(F)cc4[nH]ccc34)Cn3cc(ccc3=O)-c3nc2nn3C)c1)C(=O)O (single isomer, unassigned) [Compound 132B, 3-[3-(22-fluoro-3,6,10,10-tetramethyl-12,12,26-trioxo-12λ6-thia-3,4,19,25,30-pentazapentacyclo-[23.3.1.12,5.015,23.016,20]triaconta-1(29),2(30),4,15,17,20,22,27-octaen-6-yl)phenyl]-2-methyl-propanoic Acid] | C (a value greater than 10 °C and less than or equal to 25 °C is marked “C”) | A (a TECC value less than 12 is marked “A”) |
| CC(Cc1cccc(C2(CNCC(F)(F)F)CCCC(C)(C)CS(=O)(=O)CCc3c(c(F)cc4[nH]ccc34)Oc3ccc(F)c(c3)-c3nc2nn3C)c1)C(=O)O (single isomer, unassigned) [Compound 133A, 3-[3-[22,28-difluoro-3,10,10-trimethyl-12,12-dioxo-6-[(2,2,2-trifluoroethylamino)methyl]-24-oxa-12λ6-thia-3,4,19,30-tetrazapentacyclo[23.3.1.12,5.015,23.016,20]triaconta-1(29),2(30),4,15,17,20,22,25,27-nonaen-6-yl]phenyl]-2-methyl-propanoic Acid] | C (a value greater than 10 °C and less than or equal to 25 °C is marked “C”) | C (a value between 20 and 80 is marked “C”) |
| CC(Cc1cccc(C2(CNCC(F)(F)F)CCCC(C)(C)CS(=O)(=O)CCc3c(c(F)cc4[nH]ccc34)Oc3ccc(F)c(c3)-c3nc2nn3C)c1)C(=O)O (single isomer, unassigned) [Compound 133B, 3-[3-[22,28-difluoro-3,10,10-trimethyl-12,12-dioxo-6-[(2,2,2-trifluoroethylamino)methyl]-24-oxa-12λ6-thia-3,4,19,30-tetrazapentacyclo[23.3.1.12,5.015,23.016,20]triaconta-1(29),2(30),4,15,17,20,22,25,27-nonaen-6-yl]phenyl]-2-methyl-propanoic Acid] | B (a value above 5 °C and less than or equal to 10 °C is marked “B”) | A (a TECC value less than 12 is marked “A”) |
| Cn1nc2nc1-c1cc(ccc1F)Oc1c(F)cc3[nH]ccc3c1CCS(=O)(=O)CC(C)(C)CCCC2(C)c1cccc(CC(O)C(=O)O)c1 (single isomer, unassigned) [Compound 134A, 3-[3-(22,28-Difluoro-3,6,10,10-tetramethyl-12,12-dioxo-24-oxa-12λ6-thia-3,4,19,30-tetrazapentacyclo-[23.3.1.12,5.015,23.016,20]-triaconta-1(29),2(30),4,15,17,20,22,25,27-nonaen-6-yl)phenyl]-2-hydroxy-propanoic Acid] | C (a value greater than 10 °C and less than or equal to 25 °C is marked “C”) | C (a value between 20 and 80 is marked “C”) |
| Cn1nc2nc1-c1cc(ccc1F)Oc1c(F)cc3[nH]ccc3c1CCS(=O)(=O)CC(C)(C)CCCC2(C)c1cccc(CC(O)C(=O)O)c1 (single isomer, unassigned) [Compound 134B, 3-[3-(22,28-Difluoro-3,6,10,10-tetramethyl-12,12-dioxo-24-oxa-12λ6-thia-3,4,19,30-tetrazapentacyclo-[23.3.1.12,5.015,23.016,20]-triaconta-1(29),2(30),4,15,17,20,22,25,27-nonaen-6-yl)phenyl]-2-hydroxy-propanoic Acid] | A (an ΔTagg value less than or equal to 5 °C is marked “A”) | A (a TECC value less than 12 is marked “A”) |
| COC(Cc1cccc(C2(C)CCCC(C)(C)CS(=O)(=O)CCc3c(c(F)cc4[nH]ccc34)Oc3ccc(F)c(c3)-c3nc2nn3C)c1)C(=O)O (single isomer, unassigned) [Compound 135A, 3-[3-(22,28-Difluoro-3,6,10,10-tetramethyl-12,12-dioxo-24-oxa-12λ6-thia-3,4,19,30-tetrazapentacyclo-[23.3.1.12,5.015,23.016,20]triaconta-1(29),2(30),4,15,17,20,22,25,27-nonaen-6-yl)phenyl]-2-methoxy-propanoic Acid] | A (an ΔTagg value less than or equal to 5 °C is marked “A”) | A (a TECC value less than 12 is marked “A”) |
| COC(Cc1cccc(C2(C)CCCC(C)(C)CS(=O)(=O)CCc3c(c(F)cc4[nH]ccc34)Oc3ccc(F)c(c3)-c3nc2nn3C)c1)C(=O)O (single isomer, unassigned) [Compound 135B, 3-[3-(22,28-Difluoro-3,6,10,10-tetramethyl-12,12-dioxo-24-oxa-12λ6-thia-3,4,19,30-tetrazapentacyclo-[23.3.1.12,5.015,23.016,20]triaconta-1(29),2(30),4,15,17,20,22,25,27-nonaen-6-yl)phenyl]-2-methoxy-propanoic Acid] | C (a value greater than 10 °C and less than or equal to 25 °C is marked “C”) | C (a value between 20 and 80 is marked “C”) |
| CC(Cc1cccc(C2(CN)CCCC(C)(C)CS(=O)(=O)CCc3c(c(F)cc4[nH]ccc34)Oc3ccc(F)c(c3)-c3nc2nn3C)c1)C(=O)O (single isomer, unassigned) [Compound 136A, 3-[3-[6-(aminomethyl)-22,28-difluoro-3,10,10-trimethyl-12,12-dioxo-24-oxa-12λ6-thia-3,4,19,30-tetrazapentacyclo-[23.3.1.12,5.015,23.016,20]triaconta-1(29),2(30),4,15,17,20,22,25,27-nonaen-6-yl]phenyl]-2-methyl-propanoic Acid] | A (an ΔTagg value less than or equal to 5 °C is marked “A”) | A (a TECC value less than 12 is marked “A”) |
| CC(Cc1cccc(C2(CN)CCCC(C)(C)CS(=O)(=O)CCc3c(c(F)cc4[nH]ccc34)Oc3ccc(F)c(c3)-c3nc2nn3C)c1)C(=O)O (single isomer, unassigned) [Compound 136B, 3-[3-[6-(aminomethyl)-22,28-difluoro-3,10,10-trimethyl-12,12-dioxo-24-oxa-12λ6-thia-3,4,19,30-tetrazapentacyclo-[23.3.1.12,5.015,23.016,20]triaconta-1(29),2(30),4,15,17,20,22,25,27-nonaen-6-yl]phenyl]-2-methyl-propanoic Acid] | C (a value greater than 10 °C and less than or equal to 25 °C is marked “C”) | C (a value between 20 and 80 is marked “C”) |
| CC(Cc1cccc(C2(CNCC(F)F)CCCC(C)(C)CS(=O)(=O)CCc3c(c(F)cc4[nH]ccc34)Oc3ccc(F)c(c3)-c3nc2nn3C)c1)C(=O)O (single isomer, unassigned) [Compound 137B, 3-[3-[6-[(2,2-difluoroethylamino)methyl]-22,28-difluoro-3,10,10-trimethyl-12,12-dioxo-24-oxa-12λ6-thia-3,4,19,30-tetrazapentacyclo[23.3.1.12,5.015,23.016,20]triaconta-1(29),2(30),4,15,17,20,22,25,27-nonaen-6-yl]phenyl]-2-methyl-propanoic Acid] | B (a value above 5 °C and less than or equal to 10 °C is marked “B”) | A (a TECC value less than 12 is marked “A”) |
| CC(C)OC(=O)[C@@H](C)Cc1cccc(C2(C)CCCC(C)(C)CS(=O)(=O)CCc3c(c(F)cc4[nH]ccc34)Oc3ccc(F)c(c3)-c3nc2nn3C)c1 (single isomer, unassigned) [Compound 139] | B (a value above 5 °C and less than or equal to 10 °C is marked “B”) | C (a value between 20 and 80 is marked “C”) |
| C[C@@H](Cc1cccc(C2(C)CCCC(C)(C)CS(=O)(=O)CCc3c(c(F)cc4[nH]ccc34)Oc3ccc(F)c(c3)-c3nc2nn3C)c1)C(=O)OCCO (single isomer, unassigned) [Compound 140] | C (a value greater than 10 °C and less than or equal to 25 °C is marked “C”) | B (a value between 12-20 is marked “B”) |
| C[C@@H](Cc1cccc(C2(C)CCCC(C)(C)CS(=O)(=O)CCc3c(c(F)cc4[nH]ccc34)Oc3ccc(F)c(c3)-c3nc2nn3C)c1)C(=O)OCC(O)CO (single isomer, unassigned) [Compound 141] | C (a value greater than 10 °C and less than or equal to 25 °C is marked “C”) | B (a value between 12-20 is marked “B”) |
| C[C@@H](Cc1cccc(C2(C)CCCC(C)(C)CS(=O)(=O)CCc3c(c(F)cc4[nH]ccc34)Oc3ccc(F)c(c3)-c3nc2nn3C)c1)C(=O)OCCN1CCOCC1 (single isomer, unassigned) [Compound 142] | B (a value above 5 °C and less than or equal to 10 °C is marked “B”) | B (a value between 12-20 is marked “B”) |
| C[C@@H](Cc1cccc(C2(C)CCCC(C)(C)CS(=O)(=O)CCc3c(c(F)cc4[nH]ccc34)Oc3ccc(F)c(c3)-c3nc2nn3C)c1)C(=O)OCCN1CCN(C)CC1 (single isomer, unassigned) [Compound 143] | B (a value above 5 °C and less than or equal to 10 °C is marked “B”) | B (a value between 12-20 is marked “B”) |
| C[C@@H](Cc1cccc(C2(C)CCCC(C)(C)CS(=O)(=O)CCc3c(c(F)cc4[nH]ccc34)Oc3ccc(F)c(c3)-c3nc2nn3C)c1)C(=O)OCc1coc(=O)o1 (single isomer, unassigned) [Compound 144] | C (a value greater than 10 °C and less than or equal to 25 °C is marked “C”) | B (a value between 12-20 is marked “B”) |

Reference: patent publication US12649750B2, “Macrocyclic compounds, compositions, and methods of using thereof” (Sionna Therapeutics Inc., priority 2022, dated 2026)
